How the values were obtained:
[1] = target: T1, Metabotropic glutamate receptor 5 (Rattus norvegicus, UniProt P31424); assay: Negative allosteric modulator activity at mGluR5 receptor expressed in HEK293A cells assessed as inhibition of glutamate-induced calcium flux preincubated for 140 secs before glutamate challenge by calcium fluorescence assay; format: functional, cell-based, HEK293-A
Target sequence in this assay (P31424 whole entry, looked up): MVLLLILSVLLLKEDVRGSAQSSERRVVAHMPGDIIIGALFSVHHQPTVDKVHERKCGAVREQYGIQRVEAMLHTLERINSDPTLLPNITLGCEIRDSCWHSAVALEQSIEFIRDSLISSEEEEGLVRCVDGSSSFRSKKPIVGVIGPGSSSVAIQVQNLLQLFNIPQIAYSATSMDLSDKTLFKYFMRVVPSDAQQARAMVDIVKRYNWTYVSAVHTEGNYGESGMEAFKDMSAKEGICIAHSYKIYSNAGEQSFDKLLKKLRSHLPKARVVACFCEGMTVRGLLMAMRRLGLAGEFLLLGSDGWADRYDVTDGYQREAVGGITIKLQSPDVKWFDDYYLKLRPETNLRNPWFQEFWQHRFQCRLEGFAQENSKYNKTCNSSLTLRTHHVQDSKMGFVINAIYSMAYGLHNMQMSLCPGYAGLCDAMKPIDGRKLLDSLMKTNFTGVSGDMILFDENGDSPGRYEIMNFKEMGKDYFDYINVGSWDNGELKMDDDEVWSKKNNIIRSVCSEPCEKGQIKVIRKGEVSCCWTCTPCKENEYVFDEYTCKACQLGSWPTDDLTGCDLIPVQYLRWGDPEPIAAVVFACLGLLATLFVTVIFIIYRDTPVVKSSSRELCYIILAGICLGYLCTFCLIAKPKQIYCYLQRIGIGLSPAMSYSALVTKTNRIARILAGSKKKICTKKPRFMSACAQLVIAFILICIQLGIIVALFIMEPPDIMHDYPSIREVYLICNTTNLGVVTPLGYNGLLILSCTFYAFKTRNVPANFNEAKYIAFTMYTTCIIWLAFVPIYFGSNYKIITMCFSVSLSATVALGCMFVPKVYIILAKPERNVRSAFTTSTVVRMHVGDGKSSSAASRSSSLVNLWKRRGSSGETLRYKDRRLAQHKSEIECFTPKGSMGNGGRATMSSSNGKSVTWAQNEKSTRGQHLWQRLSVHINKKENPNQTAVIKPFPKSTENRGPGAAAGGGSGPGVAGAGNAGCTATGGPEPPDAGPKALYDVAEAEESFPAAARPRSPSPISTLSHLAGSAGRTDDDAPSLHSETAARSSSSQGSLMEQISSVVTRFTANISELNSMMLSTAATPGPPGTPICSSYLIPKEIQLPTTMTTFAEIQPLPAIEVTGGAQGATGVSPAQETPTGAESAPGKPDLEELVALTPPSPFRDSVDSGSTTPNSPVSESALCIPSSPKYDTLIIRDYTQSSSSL

[2] = target: Metabotropic glutamate receptor 5 (Homo sapiens) (UniProt P41594); assay: Positive allosteric modulator activity at mGluR5 receptor expressed in HEK293A cells assessed as maximum glutamate-induced response preincubated for 140 secs before glutamate challenge by calcium fluorescence assay; format: functional, cell-based; settings: HEK293-A
Sequence of Metabotropic glutamate receptor 5 (Homo sapiens) (P41594 21-1212 limits assumed): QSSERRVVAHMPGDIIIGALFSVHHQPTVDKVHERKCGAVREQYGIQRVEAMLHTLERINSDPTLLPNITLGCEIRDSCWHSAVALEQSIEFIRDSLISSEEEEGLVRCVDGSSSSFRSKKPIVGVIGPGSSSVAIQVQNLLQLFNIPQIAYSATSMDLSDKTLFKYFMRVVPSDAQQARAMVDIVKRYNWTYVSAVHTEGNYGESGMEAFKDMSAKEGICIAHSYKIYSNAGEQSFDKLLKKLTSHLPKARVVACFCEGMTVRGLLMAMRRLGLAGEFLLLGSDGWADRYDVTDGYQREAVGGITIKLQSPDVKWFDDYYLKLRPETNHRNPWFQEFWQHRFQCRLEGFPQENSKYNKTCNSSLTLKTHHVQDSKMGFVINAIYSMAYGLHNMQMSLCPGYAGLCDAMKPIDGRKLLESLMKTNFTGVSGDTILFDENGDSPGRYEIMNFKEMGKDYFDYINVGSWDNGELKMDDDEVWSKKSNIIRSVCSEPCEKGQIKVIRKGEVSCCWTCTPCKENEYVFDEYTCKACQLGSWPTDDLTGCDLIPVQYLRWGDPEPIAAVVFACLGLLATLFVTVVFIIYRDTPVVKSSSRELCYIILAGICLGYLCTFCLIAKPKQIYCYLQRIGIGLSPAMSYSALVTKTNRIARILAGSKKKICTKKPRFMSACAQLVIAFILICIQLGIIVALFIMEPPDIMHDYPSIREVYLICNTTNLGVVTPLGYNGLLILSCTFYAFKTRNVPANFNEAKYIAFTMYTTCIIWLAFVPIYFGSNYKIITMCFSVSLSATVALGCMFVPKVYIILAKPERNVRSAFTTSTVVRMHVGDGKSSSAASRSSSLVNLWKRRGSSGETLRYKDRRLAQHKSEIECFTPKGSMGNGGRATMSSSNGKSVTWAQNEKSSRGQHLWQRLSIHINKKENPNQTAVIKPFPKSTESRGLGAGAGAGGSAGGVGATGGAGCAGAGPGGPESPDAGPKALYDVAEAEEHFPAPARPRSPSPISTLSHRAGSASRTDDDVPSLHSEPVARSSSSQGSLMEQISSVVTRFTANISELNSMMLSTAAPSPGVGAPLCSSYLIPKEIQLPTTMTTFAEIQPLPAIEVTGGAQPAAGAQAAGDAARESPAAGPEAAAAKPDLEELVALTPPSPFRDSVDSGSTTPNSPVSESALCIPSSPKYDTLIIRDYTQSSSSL

[3] = target: T1, Metabotropic glutamate receptor 5; assay: Positive allosteric modulator activity at mGluR5 receptor expressed in HEK293A cells assessed as effect on glutamate-induced calcium flux preincubated for 140 secs before glutamate challenge by calcium fluorescence assay; format: functional, cell-based, HEK293-A
Target sequence in this assay (P31424 whole entry, looked up): as the sequence (P31424 whole entry, looked up) above

[4] = target: Metabotropic glutamate receptor 5 (Homo sapiens) (UniProt P41594); assay: Ago-Positive allosteric modulator activity at mGluR5 receptor expressed in HEK293A cells assessed as maximum glutamate-induced response preincubated for 140 secs before glutamate challenge by calcium fluorescence assay; format: functional, cell-based; settings: HEK293-A
[5] = target: T1, Metabotropic glutamate receptor 5; assay: Ago-Positive allosteric modulator activity at mGluR5 receptor expressed in HEK293A cells assessed as effect on glutamate-induced calcium flux preincubated for 140 secs before glutamate challenge by calcium fluorescence assay; format: functional, cell-based, HEK293-A
Target sequence in this assay (P31424 whole entry, looked up): as above

[6] = target: Metabotropic glutamate receptor 5 (Homo sapiens) (UniProt P41594); assay: Negative allosteric modulator activity at mGluR5 receptor expressed in HEK293A cells assessed as maximum glutamate-induced response preincubated for 140 secs before glutamate challenge by calcium fluorescence assay; format: functional, cell-based; settings: HEK293-A
[7] = target: T1, Metabotropic glutamate receptor 5; assay: Partial antagonist activity at mGluR5 receptor expressed in HEK293A cells assessed as inhibition of glutamate-induced calcium flux preincubated for 140 secs before glutamate challenge by calcium fluorescence assay; format: functional, cell-based, HEK293-A
Target sequence in this assay (P31424 whole entry, looked up): as above

[8] = target: Metabotropic glutamate receptor 5 (Homo sapiens) (UniProt P41594); assay: Partial antagonist activity at mGluR5 receptor expressed in HEK293A cells assessed as maximum glutamate-induced response preincubated for 140 secs before glutamate challenge by calcium fluorescence assay; format: functional, cell-based; parameters: scale not given: the % may be the effect or the level left; settings: HEK293-A
[9] = target: T1, Metabotropic glutamate receptor 5; assay: Negative allosteric modulator activity at rat mGluR5 receptor expressed in HEK293A cells
Target sequence in this assay (P31424 whole entry): as the sequence (P31424 whole entry, looked up) above

[10] = target: T1, Metabotropic glutamate receptor 5; assay: Positive allosteric modulator activity at rat mGlu5 receptor expressed in HEK293A cells assessed as increase in glutamate induced response; format: cell-based, HEK293-A
Target sequence in this assay (P31424 whole entry): as the sequence (P31424 whole entry, looked up) above

[11] = target: Metabotropic glutamate receptor 5 (Rattus norvegicus) (UniProt P31424); assay: Positive allosteric modulator activity at rat mGlu5 receptor expressed in HEK293A cells assessed as fold shift in glutamate induced response relative to control; format: cell-based; settings: HEK293-A
Sequence of Metabotropic glutamate receptor 5 (Rattus norvegicus) (P31424 21-1203 limits assumed): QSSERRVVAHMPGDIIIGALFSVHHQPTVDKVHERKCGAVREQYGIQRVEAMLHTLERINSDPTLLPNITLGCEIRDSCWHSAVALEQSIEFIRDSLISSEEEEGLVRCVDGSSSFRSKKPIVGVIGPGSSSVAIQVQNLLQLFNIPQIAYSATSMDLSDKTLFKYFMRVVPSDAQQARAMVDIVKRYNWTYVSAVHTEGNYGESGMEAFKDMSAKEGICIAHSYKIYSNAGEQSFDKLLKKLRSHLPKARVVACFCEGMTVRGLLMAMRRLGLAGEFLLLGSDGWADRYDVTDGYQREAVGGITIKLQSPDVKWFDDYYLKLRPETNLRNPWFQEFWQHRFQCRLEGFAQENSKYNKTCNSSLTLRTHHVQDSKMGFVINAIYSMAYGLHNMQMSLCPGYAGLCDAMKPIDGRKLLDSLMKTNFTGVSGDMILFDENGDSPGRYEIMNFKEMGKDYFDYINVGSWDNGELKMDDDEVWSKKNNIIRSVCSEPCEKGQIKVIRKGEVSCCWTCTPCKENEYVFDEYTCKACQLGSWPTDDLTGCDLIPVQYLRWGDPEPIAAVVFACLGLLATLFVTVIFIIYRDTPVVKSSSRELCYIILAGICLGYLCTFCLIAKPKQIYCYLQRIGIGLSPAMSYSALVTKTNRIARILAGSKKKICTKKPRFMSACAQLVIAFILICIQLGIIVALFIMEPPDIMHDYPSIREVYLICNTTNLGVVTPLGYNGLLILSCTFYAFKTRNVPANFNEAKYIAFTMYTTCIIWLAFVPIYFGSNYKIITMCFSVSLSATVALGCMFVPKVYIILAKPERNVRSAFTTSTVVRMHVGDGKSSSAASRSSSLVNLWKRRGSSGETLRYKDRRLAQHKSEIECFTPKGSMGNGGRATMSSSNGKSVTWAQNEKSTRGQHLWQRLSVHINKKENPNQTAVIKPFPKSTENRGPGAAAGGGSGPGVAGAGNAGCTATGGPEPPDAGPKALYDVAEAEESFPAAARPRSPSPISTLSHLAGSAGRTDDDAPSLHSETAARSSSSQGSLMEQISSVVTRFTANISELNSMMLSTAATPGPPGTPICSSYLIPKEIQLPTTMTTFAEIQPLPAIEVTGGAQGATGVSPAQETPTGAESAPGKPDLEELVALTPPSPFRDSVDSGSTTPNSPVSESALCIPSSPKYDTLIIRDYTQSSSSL

Activity [2] | EC50 [3] | Activity [6] | SMILES | IC50 [1] | also measured
 |  |  | O=C(C1CCC1)N1CCCC[C@H]1c1nc(-c2ccccn2)no1 | 10000 nM | 
64% |  |  | O=C(C1CCC1)N1CCCC1c1nc(-c2cccc(F)c2)no1 (racemic) |  | 
 |  |  | COc1cccc(-c2noc([C@@H]3CCCCN3C(=O)C3CCC3)n2)c1 | 80 nM | 
38% |  |  | O=C(C1CCC1)N1CCCC[C@@H]1c1nc(-c2cccc(F)c2)no1 (stereo in doubt; 22b) [listing 1 of 2 here] |  | 
47% | 2600 nM |  | O=C(c1cccc(F)c1)N1CCCC1c1nc(-c2cccc(F)c2)no1 (centres undefined) |  | 
 | 1500 nM |  | O=C(C1CCC1)N1CCCC1c1nc(-c2cccc(F)c2)no1 (stereo in doubt; 24b) [listing 1 of 2 here] |  | 
 |  |  | O=C(C1CCCC1)N1CCCC[C@@H]1c1nc(-c2cccc(F)c2)no1 |  | Activity [4]: 80%; EC50 [5]: 310 nM
62% | 3700 nM |  | O=C(c1ccc(F)c(F)c1)N1CCCC1c1nc(-c2cccc(F)c2)no1 (centres undefined) |  | 
59% | 3600 nM |  | O=C(c1ccc(F)cc1)N1CCCC1c1nc(-c2cccc(F)c2)no1 (centres undefined) |  | 
63% |  |  | O=C(C1CCC1)N1CCCC1c1nc(-c2cccc(F)c2)no1 (stereo in doubt; 24b) [listing 2 of 2 here] |  | 
 |  |  | Cc1cccc(-c2noc([C@H]3CCCCN3C(=O)C3CC3)n2)c1 |  | IC50 [7]: 280 nM; Activity [8]: 16%
 | 600 nM |  | O=C(C1CCC1)N1CCCC[C@@H]1c1nc(-c2cccc(F)c2)no1 (stereo in doubt; (R)-20c) |  | 
 |  | 67% | O=C(C1CCC1)N1CCC[C@H](c2nc(-c3cccs3)no2)C1 | 9300 nM | 
59% | 460 nM |  | O=C(c1cccc(F)c1)N1CCCC[C@@H]1c1nc(-c2cccc(F)c2)no1 |  | 
57.3% | 7000 nM |  | O=C(C1CCC1)N1CCC[C@H]1c1nc(-c2cccc(F)c2)no1 |  | 
91% |  |  | O=C(c1ccc(F)cc1)N1CCCC[C@@H]1c1nc(-c2cccc(F)c2)no1 |  | 
95% | 2900 nM |  | O=C(c1ccc(F)cc1F)N1CCCC[C@@H]1c1nc(-c2cccc(F)c2)no1 |  | 
75% | 1000 nM |  | O=C(C1CCCC1)N1CCCC1c1nc(-c2cccc(F)c2)no1 (centres undefined) |  | 
 |  |  | Cc1cccc(-c2noc([C@H]3CCCCN3C(=O)C3CCCC3)n2)c1 |  | IC50 [7]: 600 nM; Activity [8]: 24%
 |  | 54% | COc1cccc(-c2noc([C@@H]3CCCN(C(=O)C4CCC4)C3)n2)c1 | > 10000 nM | 
 |  |  | Cc1cccc(-c2noc([C@@H]3CCCCN3C(=O)C3CCC3)n2)c1 | 500 nM | 
61% | 10000 nM |  | O=C(c1ccc(F)cc1F)N1CCCC1c1nc(-c2cccc(F)c2)no1 (centres undefined) |  | 
 |  |  | Cc1cccc(-c2noc([C@H]3CCCCN3C(=O)C3CCC3)n2)c1 | 300 nM | 
 |  |  | O=C(c1ccc(F)cc1)N1CCC[C@H](c2nc(-c3cccs3)no2)C1 |  | EC50 [10]: 170 nM; fold change (FC) [11]: 20

Activity [2] | EC50 [3] | Activity [6] | SMILES | IC50 [1] | also measured
 |  |  | Cc1ccc(C#Cc2cncnc2)cc1 |  | fold change (FC) [11]: 4.2
 |  |  | COc1cccc(-c2noc([C@H]3CCCCN3C(=O)C3CCC3)n2)c1 | 300 nM | 
 |  | 0.9% | Cc1cccc(-c2noc([C@H]3CCCCN3C(=O)c3cccs3)n2)c1 | 730 nM | 
 |  |  | O=C(C1CCC1)N1CCCC[C@H]1c1nc(-c2cccs2)no1 | 2600 nM | 
60% | 430 nM |  | O=C(c1cccs1)N1CCCC1c1nc(-c2cccc(F)c2)no1 (centres undefined) |  | 
34% |  |  | O=C(c1cccs1)N1CCCC[C@@H]1c1nc(-c2cccc(F)c2)no1 |  | 
 |  | 46% | Cc1cccc(-c2noc([C@H]3CCCCN3C(=O)c3ccc(F)c(F)c3)n2)c1 | 10000 nM | 
 | 650 nM |  | O=C(C1CCC1)N1CCCC[C@@H]1c1nc(-c2cccc(F)c2)no1 (stereo in doubt; 22b) [listing 2 of 2 here] |  | 
68.4% | 530 nM |  | O=C(C1CCC1)N1CCC[C@@H]1c1nc(-c2cccc(F)c2)no1 |  | 
93% | 1400 nM |  | O=C(c1ccc(F)c(F)c1)N1CCCC[C@@H]1c1nc(-c2cccc(F)c2)no1 |  | 
 | 700 nM |  | O=C(C1CCC1)N1CCCC[C@H]1c1nc(-c2cccc(F)c2)no1 |  | 
 |  | 14% | Cc1cccc(-c2noc([C@@H]3CCCN(C(=O)C4CCC4)C3)n2)c1 | 4700 nM | 
 |  | 16% | Cc1cccc(-c2noc([C@H]3CCCCN3C(=O)c3cccc(F)c3)n2)c1 | 4700 nM | 
58% | 3500 nM |  | O=C(C1CCCCC1)N1CCCC[C@@H]1c1nc(-c2cccc(F)c2)no1 |  | 
 |  | 9.2% | Cc1cccc(-c2noc([C@H]3CCCCN3C(=O)C3CCCCC3)n2)c1 | 2500 nM | 
 |  |  | O=C(C1CC1)N1CCCC[C@@H]1c1nc(-c2cccc(F)c2)no1 |  | Activity [4]: 70%; EC50 [5]: 80 nM
 |  | 25% | O=C(C1CCC1)N1CCCC1c1nc(-c2cccc(Cl)c2)no1 (racemic) | 10000 nM | 
68% | 2900 nM |  | O=C(C1CC1)N1CCCC1c1nc(-c2cccc(F)c2)no1 (centres undefined) |  | 
 |  |  | O=C(C1CCC1)N1CCCC[C@@H]1c1nc(-c2cccs2)no1 | 3500 nM | 
 |  | 2.5% | Cc1cccc(-c2noc([C@H]3CCCN(C(=O)C4CCC4)C3)n2)c1 | 700 nM | 
 |  |  | O=C(c1ccc(F)cc1F)N1CCC[C@H](c2nc(-c3ccccn3)no2)C1 |  | EC50 [10]: 240 nM; fold change (FC) [11]: 14
72% | 2700 nM |  | O=C(C1CCC1)N1CCCC1c1nc(-c2ccc(F)cc2)no1 (racemic) |  | 
 |  | 2.1% | COc1cccc(-c2noc([C@H]3CCCN(C(=O)C4CCC4)C3)n2)c1 | 1800 nM | 

SMILES | Activity [2] | EC50 [3] | Activity [6] | IC50 [1] | also measured
O=C(C1CCC1)N1CCC[C@@H](c2nc(-c3ccccn3)no2)C1 |  |  | 19% | 9900 nM | 
O=C(C1CCC1)N1CCC[C@H](c2nc(-c3cccc(Cl)c3)no2)C1 |  |  | 2.4% | 200 nM | 
Cc1cccc(-c2noc(C3CCCN3C(=O)C3CCC3)n2)c1 (racemic) |  |  | 34% | 2400 nM | 
O=C(C1CCC1)N1CCC[C@@H](c2nc(-c3cccc(F)c3)no2)C1 |  |  | 60% | > 10000 nM | 
O=C(C1CCC1)N1CCC[C@@H](c2nc(-c3cccc(Cl)c3)no2)C1 |  |  | 18% | 3100 nM | 
O=C(C1CCC1)N1CCC[C@H](c2nc(-c3ccccn3)no2)C1 |  |  | 33% | > 10000 nM | IC50 [9]: 8.7 µM
O=C(C1CCC1)N1CCC[C@H](c2nc(-c3cccc(F)c3)no2)C1 |  |  | 31% | 2400 nM | 
Cc1cccc(-c2noc([C@H]3CCCCN3C(=O)c3ccc(F)cc3)n2)c1 |  |  | 47% | 10000 nM | 

Reference: ChEMBL document CHEMBL1770117 (Bioorg Med Chem Lett, 2011)
